Results: patent US9303069B2, “Peptides for treating cancer” (University of Mississippi Medical Center, priority 2014, dated 2016)
Ends that are not written are not given here.

Experiments:
HOSE and HOSE/IRIS cells = assay: Survival of HOSE versus HOSE/IRIS cells; format: cell-based, human; details: pre-treatment with 5 μM of IRIS peptide
Method: To test that, HOSE or HOSE/IRIS cells were incubated for 24 hours with 10 μM of ErbB2 (CP-724714), EGFR (Erlotinib), TrkB (K252a), JNK (SP600125), p38 (SB203580), ERK (PD98059) and PI3′K/AKT (LY294002) inhibitors. […] Taken together, BRCA1-IRIS overexpression activates AKT and ERK, thereby inactivating FOXO3a and promoting Cyclin D1, survivin, Bcl-2 and NF-κB expression and suppressing p27 expression (FIG. 15).
HOSE cells overexpressing IRIS show a higher degree of resistance to cisplatin than HOSE cells (compare blue to black line in FIG. 30).
Cell viability measurement. Cell viability under different experimental conditions was determined using the MTS assay […]. Briefly, SKOV3, OVACAR3, HOSE and HOSE/IRIS cells (2.5×10^4 cells per well) were seeded in 96 well plates and incubated overnight at 37° C. in 10% humidified CO2 atmosphere in varying concentrations of IRIS peptide, or inhibitors of ErbB2 (CP-724714), EGFR (Erlotinib), TrkB (K252a), JNK (SP600125), p38 (SB203580), ERK (PD98059) and PI3′K/AKT (LY294002) inhibitors for 24 hours at 37° C. Cell Titer 96® Aqueous (Promega, Madison, Wis., USA) was used to measure viability following manufactures instructions. Cell viability (%) was expressed as a ratio to control cells×100. Growth inhibition was also determined by manually counting cells in five different microscopic fields. Change in cell numbers (fold) was expressed as a ratio to control cells×100. All experiments were done in at least triplicates, three different times. * is p≦0.05, ** is p≦0.001 and *** is p≦0.0001.

BRCA1-IRIS and survivin = assay: IHC of MDA-MB-468 tumors for BRCA1-IRIS and survivin; format: in vivo, mice; details: MDA-MB-468 tumors after treatment
Source text: To study that on the molecular level, sections from these tumors were stained with H&E or for BRCA1-IRIS or survivin using immunohistochemistry. […] Accordingly, it is proposed that inactivating BRCA1-IRIS in TNBC patients might sensitize to lower paclitaxel concentrations to avoid the adverse side effects and also to prevent the recurrence of these tumors at a later point.
Immunohistochemistry (IHC). Breast tissue microarrays comprised of normal, DCIS, invasive and metastatic were purchased from US Biomax, Inc. Paraffin embedded tissue sections were de-waxed in xylene and rehydrated in alcohol. Antigen-retrieval: for FOXO3a and survivin was by heating the slides in citrate buffer (10 μM, pH 6.0) using microwave (Power level 4) for 10 minutes, for BRCA1-IRIS by incubating slides in pepsin (10 μM) for 20 min at 37° C. Endogenous peroxidase activity was suppressed by treating the slides with 3% H2O2 for 10 min. Slides were then incubated for 1 hour at room temperature with antibodies to human FOXO3a or survivin (Cell Signaling Technology, USA 1:400), or overnight at 4° C. with monoclonal anti-human BRCA1-IRIS (1:75). Vectastain Elite ABC Kit was used to develop the staining using horseradish peroxidase labeled secondary antibodies (1 hour at room temperature).

[1] = tested on: HOSE, HOSE/IRIS, SKOV3, OVCAR3, OVCAR420 and OV-90 cells; assay: Survival of ovarian cell lines after siRNA transfection followed by IRIS peptide; format: cell-based, human; details: then increasing concentrations of IRIS peptide 24 hours
Method: To establish the specificity of this peptide further, it was assumed that it would not affect cells already depleted from BRCA1-IRIS. To do that HOSE, HOSE/IRIS, SKOV3, OVCAR3, OVAC420 and OV-90 cells were first transfected with luciferase (as control, hereafter siLuc) or BRCA1-IRIS (hereafter siIRIS) specific siRNAs for 48 hours before they were exposed to increasing concentrations of IRIS peptide for another 24 hours.
Cell viability measurement. Cell viability under different experimental conditions was determined using the MTS assay or cell. […] Cell viability (%) was expressed as a ratio to control cells×100. Growth inhibition was also determined by manually counting cells in five different microscopic fields. Change in cell numbers (fold) was expressed as a ratio to control cells×100. […]
Transfections of siRNA. siRNAs for human ErbB2 and TrkB were purchased from Ambion and Santa Cruz Biotechnology, USA. […] Cell viability was evaluated by MTS or by manual counting after 72 hours of siRNA exposure alone or in combination with cisplatin exposure (for an additional 24 hours).

SKOV3 cells = assay: Three-dimensional (3D) growth / acini formation in matrigel, SKOV3; format: cell-based, human
MDA-MB-468 cells = details: 48 h
Method: (§1) All cell lines were exposed to increasing concentrations of paclitaxel and BRCA1-IRIS expression, and cells' viability was then measured.
Stable clones were then exposed to 0, 10 or 20 μM of EGFR (Erlotinib), ErbB2 (CP-724714), PI3′K/AKT (LY294002), p38 (SB203580), ERK (PD98059) or JNK (SP600125) inhibitors for 24 hours.
First, to assess the effect of this IRIS peptide, equal numbers of HME, HME/IRIS, MDA-MB-231, MDA-MB-468 and BT549 cells were exposed to increasing concentrations of scrambled or IRIS peptide for 48 hours.
Cell viability under different experimental conditions was determined using the MTS assay. Briefly, cells (2.5×10^4 cells per well) were seeded in 96-well plates and incubated overnight at 37° C. in 10% humidified CO2 atmosphere. The next day they were incubated with varying concentration of peptide, or inhibitors for 24 hours at 37° C. Cell viability was determined using cell Titer 96® Aqueous (Promega, Madison, Wis., USA) following manufacturer's instructions. Cell viability (%) was expressed as a ratio of treated cells to control cells×100. Growth inhibition was also determined by manually counting cells in five different microscopic fields. Change in cell numbers (fold) was expressed as a ratio of the means of these recording of treated cells compared to control cells×100. Each experiment was done in triplicate, repeated three separate times.

HME/IRIS cells = details: 48 h
Method: as §1
Cell viability measurement. Cell viability under different experimental conditions was determined using the MTS assay. Briefly, cells (2.5×10^4 cells per well) were seeded in 96-well plates and incubated overnight at 37° C. in 10% humidified CO2 atmosphere. The next day they were incubated with varying concentration of peptide, or inhibitors for 24 hours at 37° C. Cell viability was determined using cell Titer 96® Aqueous (Promega, Madison, Wis., USA) following manufacturer's instructions. Cell viability (%) was expressed as a ratio of treated cells to control cells×100. […] Each experiment was done in triplicate, repeated three separate times.

SKOV3 tumors = assay: In vivo efficacy on established SKOV3 tumors; parameters: species or system mice; details: day 16; cisplatin 5 mg/kg i.p., IRIS peptide 10 mg/kg i.t., every third day, four times
Method: Further, to determine whether IRIS peptide could have any efficacy in vivo and/or whether it sensitizes ovarian tumors to low, clinically relevant concentrations of cisplatin, four sets of nude mice (n=6 each) were subcutaneously injected with SKOV3 cells. Ten days later, when tumors were ˜250 mm^3 in volume, one group was treated with controls (i.e. DMSO delivered i.p. and scrambled peptide delivered directly into the tumors, i.t.), a second group was treated with cisplatin (5 mg/kg, delivered i.p.), a third group was treated with IRIS peptide (10 mg/kg, injected i.t.), and a fourth group was treated with both. Treatments were delivered every third day for a total of four times. For the next 16 days, tumors were measured daily with a caliper. Mice were then sacrificed, and their tumors or their remnants were taken.
Efficacy of BRCA1-IRIS inhibitory peptide, in vivo. Six to eight week old female athymic SCID mice were injected subcutaneously with 2.5×10^6 SKOV3 cells in the flank region. Their respective tumor growth was measured with a caliper. When the tumor volume reached 250 mm^3, mice were randomly grouped into four groups. One group (control) was treated with scrambled peptide (10 mg/kg) and DMSO. A second was treated with BRCA1-IRIS inhibitory peptide (10 mg/kg, body weight). […] Change in tumor volume was measured to monitor the efficacy of the treatment. […]

## RRIRPRPPRLPRPRPRPLPFPRPGIGTRFLCLPQSIYRSELNVYAFGEHILQISKYS [IRIS peptide]
HOSE and HOSE/IRIS cells
  effect on survival: decreased survival of HOSE and HOSE/IRIS cells
HOSE and HOSE/IRIS cells; then cisplatin
  sensitization to cisplatin: sensitized HOSE and HOSE/IRIS cells to low concentrations of cisplatin
BRCA1-IRIS and survivin
  BRCA1-IRIS and survivin expression in tumors (IHC): almost completely absent
[1]; siIRIS 48 hours
  effect of IRIS peptide on survival of BRCA1-IRIS silenced cells: not affected by the peptide at any of the concentrations tested
[1]; siLuc 48 hours
  effect of IRIS peptide on survival of siLuc-transfected cells: gradual decrease in the survival of all cell lines
SKOV3 cells; SKOV3 cells
  decrease in ability to form invasive structures in matrigel: > 500 fold
SKOV3 cells; SKOV3 in matrigel, day 10, peptide added every third day
  acini phenotype: slightly bigger/organized/round acini
MDA-MB-468 cells
  IC50: ~5 µM
HME/IRIS cells
  IC50: ~5 µM
SKOV3 tumors
  reduction in tumor size: ~50%
